Reference: US8399435B2, “Compounds for the treatment of proliferative disorders” (Synta Pharmaceuticals Corp., priority 2005, dated 2013)

Key:
HL-60 (T-cell leukemia) = test: In vitro cytotoxicity, MTS assay, HL-60 cells; type: cell-based; settings: Homo sapiens, HL60, Leukemia, 72 hours incubation, concentration to inhibit 50% tumor cell growth
Protocol: (§1) The in vitro cytotoxicity of the compounds of the invention was determined in the following human cell lines: HL-60 ([…]), MES-SA and MES-SA/DX5 (uterine sarcoma). MES-SA is a model of uterine sarcoma, and the cell are sensitive to a number of chemotherapeutic agents including doxorubicin, dactinomycin, mitomycin C, taxol and bleomycin, but resistant to vinblastine and cisplatin. MES-SA/Dx5 was established in the presence of increasing concentrations of doxorubicin. […] All cells were purchased from ATCC.
(§2) The cell lines were maintained in RPMI1640 (GIBCO) supplemented with 10% FCS, 100 units/mL penicillin, 100 ug/ml streptomycin, and 2 mM L-glutamine. Cells were split every third day and diluted to a concentration of 2×10^5 cells/mL one day before the experiment was performed. All experiments were performed on exponentially growing cell cultures. Cell densities were 2.5×10^4 cells/mL in all experiments.
(§3) Compounds of the invention were prepared by dissolving the compound at a concentration of 10 mM in 100% DMSO. Final concentrations 10, 1, 0.1, 0.01 and 0.001 μM were obtained by diluting the stock solution directly into the tissue culture medium. Cells were incubated with varying concentrations of compound 3 for 72 hours and the IC50 was determined by MTS (i.e. […]) assay. IC50 in this context stands for the concentration of compound required to inhibit 50% tumor cell growth.

MES-SA (uterine sarcoma) = test: In vitro cytotoxicity, MTS assay, MES-SA cells; type: cell-based; settings: Homo sapiens, Uterine Carcinoma, 72 hours incubation
Protocol: as §1, §2, §3

[1] = tested on: MES-SA/DX5 (uterine sarcoma, multidrug resistant); test: In vitro cytotoxicity, MTS assay, multidrug resistant MES-SA/DX5 cells; type: cell-based, human; settings: for IC50: Homo sapiens, MES/DX5, MDR-1, 72 hours incubation; for Activity against multidrug resistant cell line MES/SA-DX compared with Taxol: comparison with Taxol
Protocol: as §1, §2, §3

SMILES | IC50 (HL-60 (T-cell leukemia)) [µM] | IC50 (MES-SA (uterine sarcoma)) [µM] | IC50 [1] [µM] | Activity against multidrug resistant cell line MES/SA-DX compared with Taxol [1]
COc1ccc(-c2cnsc2-c2cc(OC)c(OC)c(OC)c2)cc1 [Compound 3, 4-(4-methoxy-phenyl)-5-(3,4,5-trimethoxy-phenyl)-isothiazole] | 0.474 | 0.1 | 0.08 | much greater activity than Taxol
COc1ccc(-c2cnsc2-c2cc(OC)c(OC)c(OC)c2)cc1N [Compound 64, 2-Methoxy-5-[5-(3,4,5-trimethoxy-phenyl)-isothiazol-4-yl]-phenylamine] | 0.025 | 0.042 | 0.033 | much greater activity than Taxol
CC(=O)O[C@H]1C(=O)[C@@]2(C)[C@H]([C@H](OC(=O)c3ccccc3)[C@]3(O)C[C@H](OC(=O)[C@H](O)[C@@H](NC(=O)c4ccccc4)c4ccccc4)C(C)=C1C3(C)C)[C@]1(OC(C)=O)CO[C@@H]1C[C@@H]2O [Taxol, reference compound] | 0.005 | 0.005 | 10 | 
